Assay results as given in patent US5830868A, “Substituted DI- and tripeptide inhibitors of protein: farnesyl transferase” (Warner-Lambert Company, priority 1996, dated 1998).
Numbered stars: 1 amine (or outer) side, 2 acyl side, 3 side chain; on linkers, the order of the positions; unused ones are H or OH. Square brackets hold non-standard residues; d marks the D form. Peptide text beside a SMILES is read from it. * marks the point of attachment. Bip = N[C@@H](Cc1ccc(-c2ccccc2)cc1)C(=O)O; His(τ-Me) = Cn1cnc(C[C@H](N)C(=O)O)c1; Hydrocinnamoyl = O=C(CCc1ccccc1)*; 3Pal = N[C@@H](Cc1cccnc1)C(=O)O; NHPhenethyl = c1ccc(CCN*)cc1; Cbz = O=C(OCc1ccccc1)*; CO = O=C([*:1])[*:2]; NHBn = c1ccc(CN*)cc1; Bn = c1ccc(C*)cc1

target: T1, rat brain farnesyl protein transferase (PFT) (Rattus norvegicus, UniProt Q02293+Q04631); assay: PFT inhibitory activity assay (radiolabeled farnesyl pyrophosphate, biotinyl peptide, streptavidin beads); assay type: biochemical; conditions: 40-fold purified rat brain enzyme; 0.12 μM [3H]FPP, 0.1 μM biotinyl-Ahe-Tyr-Lys-Cys-Val-Ile-Met; 37° C., 30 minutes; read-out: IC50 (μM) against PFT
T1 construct: 40-fold purified rat brain farnesyl protein transferase; from tissue; host or cells: rat brain
Method: The PFT inhibitory activity of compounds of Formula I was assayed in 30 mM potassium phosphate buffer, pH 7.4, containing 7 mM DTT, 1.2 mM MgCl2, 0.1 mM leupeptin, 0.1 mM pepstatin and 0.2 mM phenylmethylsulfonyl fluoride. Assays were performed in 96 well plates (Wallec) and employed solutions composed of varying concentrations of a compound of Formula I in 100% DMSO. Upon addition of both substrates, radiolabeled farnesyl pyrophosphate ([1-^3 H], specific activity 15--30 Ci/mmol, final concentration 0.12 μM) and (biotinyl)-Ahe-Tyr-Lys-Cys-Val-Ile-Met peptide (final concentration 0.1 μM), the enzyme reaction was started by addition of 40-fold purified rat brain farnesyl protein transferase. After incubation at 37° C. for 30 minutes, the reaction was terminated by diluting the reaction 2.5-fold with a stop buffer containing 1.5M magnesium acetate, 0.2M H3 PO4, 0.5% BSA, and strepavidin beads (Amersham) at a concentration of 1.3 mg/mL. After allowing the plate to settle for 30 minutes at room temperature, radioactivity was quantitated on a microBeta counter (model 1450, Wallec). Compounds of Formula I show IC50 values of 0.5 nM to 80 μM (see data table) in this assay and are thus valuable inhibitors of protein: farnesyl transferase enzyme which may be used in the medical treatment of tissue proliferative diseases, including cancer and restenosis.

T1 sequence (Q02293 whole entry, one chain of several): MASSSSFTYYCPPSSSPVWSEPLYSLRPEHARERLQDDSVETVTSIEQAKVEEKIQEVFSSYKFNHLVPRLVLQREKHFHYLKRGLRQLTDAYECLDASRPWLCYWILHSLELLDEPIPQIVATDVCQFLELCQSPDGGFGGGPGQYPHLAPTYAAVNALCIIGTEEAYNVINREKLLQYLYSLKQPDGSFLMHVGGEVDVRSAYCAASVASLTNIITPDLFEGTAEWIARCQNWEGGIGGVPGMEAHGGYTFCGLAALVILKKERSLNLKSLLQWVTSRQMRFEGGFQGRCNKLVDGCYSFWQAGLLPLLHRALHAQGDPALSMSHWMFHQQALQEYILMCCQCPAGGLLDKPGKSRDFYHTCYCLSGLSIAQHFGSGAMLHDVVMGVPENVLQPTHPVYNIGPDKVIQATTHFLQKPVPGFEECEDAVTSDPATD

Row | Compound | IC50
1 | CCNC(=O)[C@H](COCc1ccccc1)NC(=O)[C@H](Cc1ccc(OCc2ccccc2)cc1)NC(=O)[C@@H](Cc1c[nH]cn1)NC(=O)OCc1ccccc1 [Example 12, N-Ethyl-Nα -[N-[N-[(Phenylmethoxy)carbonyl]-D-histidyl]-O-(phenylmethyl)-L-tyrosyl]-O-(phenylmethyl)-L-serinamide] (Cbz-[dH]-Tyr(Bn)-Ser(Bn)-NHEt) | 0.028 µM
2 | COC(=O)[C@H](COCc1ccccc1)NC(=O)[C@H](Cc1ccc(OCc2ccccc2)cc1)NC(=O)[C@H](Cc1cn(C)cn1)NC(=O)OCc1ccccc1 [Example 13, N-[N-[1-Methyl-N-[(phenylmethoxy)carbonyl]l-L-histidyl]-O-(phenylmethyl)-L-tyrosyl]-O-(phenylmethyl)-L-serine. methyl ester] (Cbz-[His(τ-Me)]-Tyr(Bn)-Ser(Bn)-OMe) | 0.083 µM
3 | COC(=O)[C@H](COCc1ccccc1)NC(=O)[C@H](CCc1ccc(OCc2ccccc2)cc1)NC(=O)[C@@H](Cc1c[nH]cn1)NC(=O)OCc1ccccc1 [Example 15] | 30 µM
4 | COC(=O)[C@H](COCc1ccccc1)NC(=O)[C@H](Cc1ccc(-c2ccccc2)cc1)NC(=O)[C@H](Cc1c[nH]cn1)NC(=O)OCc1ccccc1 [Example 16, N-[4-Phenyl-N-[N-[(phenylmethoxy)carbonyl]-L-histidyl]-L-phenylalanyl]-O-(phenylmethyl)-L-serine, methyl ester] (Cbz-His-[Bip]-Ser(Bn)-OMe) | 0.6 µM
5 | COC(=O)[C@H](COCc1ccccc1)NC(=O)[C@H](Cc1ccc(OCc2ccccc2)cc1)NC(=O)[C@H](Cc1c[nH]cn1)NC(=O)NCc1ccccc1 [Example 17, N-[O-(Phenylmethyl)-N[N-[[(Phenylmethyl)amino]-carbonyl]-L-histidyl]-L-tyrosyl]-O-(phenylmethyl)-serine, methyl ester] ({NHBn-CO}-His-Tyr(Bn)-Ser(Bn)-OMe) | 0.039 µM
6 | COC(=O)[C@H](COCc1ccccc1)NC(=O)[C@H](Cc1ccc(OCc2ccccc2)cc1)NC(=O)[C@H](Cc1c[nH]cn1)NC(=O)CCc1ccccc1 [Example 18, N-[N-[N-(1-Oxo-3-phenylpropyl)-L-histidyl]-O-(phenylmethyl)-L-tyrosyl]-O-(phenylmethyl)-L-serine. methyl ester] (Hydrocinnamoyl-His-Tyr(Bn)-Ser(Bn)-OMe) | 0.82 µM
7 | O=C(N[C@@H](Cc1c[nH]cn1)C(=O)N[C@@H](Cc1ccc(OCc2ccccc2)cc1)C(=O)NCCOCc1ccccc1)OCc1ccccc1 [Example 19, Nα -[-N-[(Phenylmethoxy)carbonyl]-L-histidyl]-O-(phenylmethyl)-N-[2-(phenylmethoxy)ethyl]-L-tyrosinamide] | 0.31 µM
8 | CN(C(=O)OCc1ccccc1)[C@H](Cc1c[nH]cn1)C(=O)N[C@@H](Cc1ccc(OCc2ccccc2)cc1)C(=O)NCCOCc1ccccc1 [Example 21, Nα -[N-Methyl-N[(phenylmethoxy)carbonyl]-D-histidyl]-N-[2-(phenylmethoxy)ethyl]-O-(phenylmethyl)-L-tyrosinamide] | 0.31 µM
9 | C[C@@](Cc1ccc(OCc2ccccc2)cc1)(NC(=O)[C@@H](Cc1c[nH]cn1)NC(=O)OCc1ccccc1)C(=O)NCCOCc1ccccc1 [Example 22] | 0.37 µM
10 | O=C(N[C@@H](Cc1c[nH]cn1)C(=O)N[C@@H](Cc1ccc(OCc2ccccc2)cc1)C(=O)NCCc1ccccc1)OCc1ccccc1 [Example 23, N-(2-Phenylethyl)-N60-[-N-[(phenylmethoxy)carbonyl]-L-histidyl]-O-(phenylmethyl)-L-tyrosinamide] (Cbz-His-Tyr(Bn)-NHPhenethyl) | 1.9 µM
11 | COC(=O)[C@H](Cc1cccnc1)NC(=O)[C@H](Cc1ccc(OCc2ccccc2)cc1)NC(=O)[C@H](Cc1c[nH]cn1)NC(=O)OCc1ccccc1 [Example 24, N-[N-[N-[(Phenylmethoxy)carbonyl]-L-histidyl]-O-(phenylmethyl)-L-tyrosyl]-3-(3-pyridinyl)-L-alanine, methyl ester] (Cbz-His-Tyr(Bn)-[3Pal]-OMe) | 1 µM
12 | CN(CCOCc1ccccc1)C(=O)[C@H](Cc1ccc(OCc2ccccc2)cc1)NC(=O)[C@H](Cc1c[nH]cn1)NC(=O)OCc1ccccc1 [Example 29, Nα -[N-[(Phenylmethoxy)carbonyl]-L-histidyl]-O-(phenylmethyl)-N-methyl-N-[2-(phenylmethoxy)ethyl]-L-tyrosinamide] | 3 µM
13 | PhCH2 CH2 NHCO--D--His--Tyr(OBn)CONHCH2 CH2 [5 (27)] | 30 µM
